Test results as given in the supplement of paper PMC5908809.

Legend:
KAI3 (IL-2 2.5 ng/mL) [1] = experiment: drug sensitivity score (DSS) (DSS units); higher = more sensitive; extreme values may be limits of the assay; conditions: 72 h
[2] = test system: normal primary NK cells, pool 1 (3 donors), resting (IL-2 0 ng/mL); experiment: as above; conditions: 72 h
[3] = test system: normal primary NK cells, pool 1 (3 donors) (IL-2 2.5 ng/mL); experiment: as above; conditions: 72 h
[4] = test system: normal primary NK cells, pool 2 (3 donors) (IL-2 2.5 ng/mL); experiment: as above; conditions: 72 h
IMC-1 (IL-2 20 ng/mL) [5] = experiment: as above; conditions: 72 h
[6] = test system: normal primary NK cells, pool 3 (3 donors) (IL-2 2.5 ng/mL); experiment: as above; conditions: 72 h
NK-YS (IL-2 2.5 ng/mL) [7] = experiment: as above; conditions: 72 h
YT (IL-2 2.5 ng/mL) [8] = experiment: as above; conditions: 72 h
NK-92 (IL-2 2.5 ng/mL) [9] = experiment: as above; conditions: 72 h
KHYG-1 (IL-2 2.5 ng/mL) [10] = experiment: as above; conditions: 72 h
NKL (IL-2 2.5 ng/mL) [11] = experiment: as above; conditions: 72 h
DERL-7 (IL-2 2.5 ng/mL) [12] = experiment: as above; conditions: 72 h
SNK-6 (IL-2 2.5 ng/mL) [13] = experiment: as above; conditions: 72 h
[14] = test system: normal NK cells expanded with K562-aAPC; experiment: as above; conditions: 72 h; IL-2 2.5 ng/mL
Method: (§1)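 Drug sensitivity and resistance testing on K562-aAPC-expanded normal NK cells: 5 concentrations (10-fold steps over a 10,000-fold range), 72 h at 37 °C, viability by CellTiter-Glo normalised to DMSO and benzethonium chloride controls; DSS from the fitted curve.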

KAI3 (IL-2 2.5 ng/mL) [15] = experiment: percent inhibition of viability; higher = more inhibition; conditions: 72 h
[16] = test system: normal primary NK cells, pool 1 (3 donors), resting (IL-2 0 ng/mL); experiment: as above; conditions: 72 h
[17] = test system: normal primary NK cells, pool 1 (3 donors) (IL-2 2.5 ng/mL); experiment: as above; conditions: 72 h
[18] = test system: normal primary NK cells, pool 2 (3 donors) (IL-2 2.5 ng/mL); experiment: as above; conditions: 72 h
IMC-1 (IL-2 20 ng/mL) [19] = experiment: as above; conditions: 72 h
[20] = test system: normal primary NK cells, pool 3 (3 donors) (IL-2 2.5 ng/mL); experiment: as above; conditions: 72 h
NK-YS (IL-2 2.5 ng/mL) [21] = experiment: as above; conditions: 72 h
YT (IL-2 2.5 ng/mL) [22] = experiment: as above; conditions: 72 h
NK-92 (IL-2 2.5 ng/mL) [23] = experiment: as above; conditions: 72 h
KHYG-1 (IL-2 2.5 ng/mL) [24] = experiment: as above; conditions: 72 h
NKL (IL-2 2.5 ng/mL) [25] = experiment: as above; conditions: 72 h
DERL-7 (IL-2 2.5 ng/mL) [26] = experiment: as above; conditions: 72 h
SNK-6 (IL-2 2.5 ng/mL) [27] = experiment: as above; conditions: 72 h
[28] = test system: normal NK cells expanded with K562-aAPC; experiment: as above; conditions: 72 h, IL-2 2.5 ng/mL
Method: as §1

COc1cc(Nc2c(C#N)cnc3cc(OCCCN4CCN(C)CC4)c(OC)cc23)c(Cl)cc1Cl [Bosutinib] (max concentration tested 10000 nM)
Conditions	drug sensitivity score
DERL-7 (IL-2 2.5 ng/mL) [12]	9.96
IMC-1 (IL-2 20 ng/mL) [5]	4.71
KAI3 (IL-2 2.5 ng/mL) [1]	9.81
KHYG-1 (IL-2 2.5 ng/mL) [10]	9.26
NK-92 (IL-2 2.5 ng/mL) [9]	8.9
NK-YS (IL-2 2.5 ng/mL) [7]	5.71
NKL (IL-2 2.5 ng/mL) [11]	5.43
SNK-6 (IL-2 2.5 ng/mL) [13]	4.57
YT (IL-2 2.5 ng/mL) [8]	7.9
[2]	12.4
[3]	8.82
[4]	9.3
[6]	5.14
[14]	6.07

percent inhibition of viability [%]
Conditions	1 nM	10 nM	100 nM	1000 nM	10000 nM
DERL-7 (IL-2 2.5 ng/mL) [26]	1.55	6.21	8.26	37.4	100
IMC-1 (IL-2 20 ng/mL) [19]	-6.46	0.66	-10.5	-9.81	96.6
KAI3 (IL-2 2.5 ng/mL) [15]	8.38	12	3.26	31.6	97.2
KHYG-1 (IL-2 2.5 ng/mL) [24]	-3.69	1.01	-1.05	26.2	96.2
NK-92 (IL-2 2.5 ng/mL) [23]	-0.68	-2.8	-0.62	22.4	97.7
NK-YS (IL-2 2.5 ng/mL) [21]	-4.4	-3.22	-2.75	2.53	96.7
NKL (IL-2 2.5 ng/mL) [25]	-12.2	-8.59	-6.88	0.83	95.5
SNK-6 (IL-2 2.5 ng/mL) [27]	6.03	14.6	-18.2	-17.4	99.7
YT (IL-2 2.5 ng/mL) [22]	1.55	1.24	2.37	15.2	97.2
[16]	-6.19	-3.78	1.15	58.5	99.3
[17]	-9.61	-1.56	4.38	20.6	100
[18]	-12.2	-5.59	-2.85	25.5	98.1
[20]	0.05	-0.81	10.8	-5.33	99.8
[28]	4.72	2.21	15.7	3.76	99.9

CC(C)C(=O)Nc1ccc([N+](=O)[O-])c(C(F)(F)F)c1 [Flutamide] (max concentration tested 10000 nM)
Conditions	drug sensitivity score
DERL-7 (IL-2 2.5 ng/mL) [12]	0
IMC-1 (IL-2 20 ng/mL) [5]	0.02
KAI3 (IL-2 2.5 ng/mL) [1]	0
KHYG-1 (IL-2 2.5 ng/mL) [10]	0
NK-92 (IL-2 2.5 ng/mL) [9]	2.07
NK-YS (IL-2 2.5 ng/mL) [7]	0
NKL (IL-2 2.5 ng/mL) [11]	0
SNK-6 (IL-2 2.5 ng/mL) [13]	0
YT (IL-2 2.5 ng/mL) [8]	1.25
[2]	0
[3]	0
[4]	0
[6]	0
[14]	0

percent inhibition of viability [%]
Conditions	1 nM	10 nM	100 nM	1000 nM	10000 nM
DERL-7 (IL-2 2.5 ng/mL) [26]	0.26	11.3	-2.83	6.87	2.11
IMC-1 (IL-2 20 ng/mL) [19]	-0.8	-1.46	-1.68	-2.71	12.2
KAI3 (IL-2 2.5 ng/mL) [15]	-0.84	-1.39	-3.89	-2.15	-17.5
KHYG-1 (IL-2 2.5 ng/mL) [24]	-7.32	-1.75	-9.49	-4.37	-1.22
NK-92 (IL-2 2.5 ng/mL) [23]	-9.52	-2.4	-7.94	12.1	22.5
NK-YS (IL-2 2.5 ng/mL) [21]	-0.08	-3.58	-2.41	-5.97	2.23
NKL (IL-2 2.5 ng/mL) [25]	-6.29	8.8	-0.67	5.38	-13.1
SNK-6 (IL-2 2.5 ng/mL) [27]	21.7	46.8	-5.11	31.3	24.2
YT (IL-2 2.5 ng/mL) [22]	-7.4	6	-4.1	6.56	19.1
[16]	-8.17	-16.6	6.26	-12.5	8.25
[17]	-3.89	-10.2	-4.34	-7.61	-4.01
[18]	7.09	-4.46	-3.61	-2.09	6.81
[20]	-0.96	0.66	3.21	-0.91	1.69
[28]	-8.49	-7.43	-8.84	-8.3	-13.9
